# Results published in patent publication US10940139B2, “Compounds that interact with the Ras superfamily for the treatment of cancers, inflammatory diseases, rasopathies, and fibrotic disease” (Shy Therapeutics LLC, priority 2017, dated 2021).
# Assays:
# [1] = tested on: TNFα production in RAW 264.7 macrophage cell line; assay: Mouse TNF alpha quantification assay (LPS-stimulated macrophages, ELISA); type: cell-based; settings: RAW264.7, RAW 264.7 murine leukemia virus transformed macrophage cell lines, LPS stimulation, read-out: TNF-α % Inhibition at 30 μM
# [2] = tested on: IL6 production in RAW 264.7 macrophage cell line; assay: Mouse IL6 quantification assay (LPS-stimulated macrophages, ELISA); type: cell-based; settings: RAW264.7, RAW 264.7 murine leukemia virus transformed macrophage cell lines, LPS stimulation, read-out: IL-6 % Inhibition at 30 μM
compound,measurement,setting,value
O=C(NCCc1cnc(O)nc1)c1csc2nc(-c3ccccn3)nc(N3CCS(=O)(=O)CC3)c12 [drawing 2247],inhibition at 30 µM,[1],0%
same,inhibition at 30 µM,[2],51 to 75%
N#Cc1ccc2c(c1)CCCC2C(=O)Nc1ccnc(-c2ccccn2)n1 (stereo not shown) [drawing 2248],inhibition at 30 µM,[1],0%
same,inhibition at 30 µM,[2],1 to 25%
Cc1cnc(-c2ccccn2)nc1NC(=O)Cc1ccc2cnccc2c1 [drawing 2249],inhibition at 30 µM,[1],0%
same,inhibition at 30 µM,[2],76 to 100%
O=C(COCc1ccnc(O)c1)Nc1nc(-c2ccccn2)nc2sccc12 [drawing 2250],inhibition at 30 µM,[1],0%
same,inhibition at 30 µM,[2],26 to 50%
Nc1nc(-c2ccccn2)nc2c(-c3ccccc3)csc12 [drawing 2251],inhibition at 30 µM,[1],51 to 75%
same,inhibition at 30 µM,[2],76 to 100%
Oc1nc(-c2ccccn2)nc2c(-c3cc(F)ccc3OC(F)F)csc12 [drawing 2252],inhibition at 30 µM,[1],26 to 50%
same,inhibition at 30 µM,[2],76 to 100%
Cn1nnc2ccc(-c3csc4c(O)nc(-c5ccccn5)nc34)cc21 [drawing 2253],inhibition at 30 µM,[1],1 to 25%
same,inhibition at 30 µM,[2],76 to 100%
Oc1nc(-c2ccccn2)nc2c(-c3ccc(OC4CCOC4)cc3)csc12 (stereo not shown) [drawing 2254],inhibition at 30 µM,[1],26 to 50%
same,inhibition at 30 µM,[2],76 to 100%
Oc1nc(-c2ccccn2)nc2c(-c3ccc(OC4CCCC4)cc3)csc12 [drawing 2255],inhibition at 30 µM,[1],0%
same,inhibition at 30 µM,[2],76 to 100%
O=S1(=O)CCN(Cc2cccc(-c3csc4c(O)nc(-c5ccccn5)nc34)c2)CC1 [drawing 2256],inhibition at 30 µM,[1],1 to 25%
same,inhibition at 30 µM,[2],76 to 100%
Oc1nc(-c2ccccn2)nc2c(-c3ccc(C4CCC4)cc3)csc12 [drawing 2257],inhibition at 30 µM,[1],0%
same,inhibition at 30 µM,[2],51 to 75%
Oc1nc(-c2ccccn2)nc2c(-c3ccccc3OC3CCCCC3)csc12 [drawing 2258],inhibition at 30 µM,[1],26 to 50%
same,inhibition at 30 µM,[2],76 to 100%
Oc1nc(-c2ccccn2)nc2c(-c3ccc(OC4CCOCC4)cc3)csc12 [drawing 2259],inhibition at 30 µM,[1],0%
same,inhibition at 30 µM,[2],76 to 100%
Oc1nc(-c2ccccn2)nc2c(-c3ccccc3F)csc12 [drawing 2260],inhibition at 30 µM,[1],51 to 75%
same,inhibition at 30 µM,[2],76 to 100%
COc1cc(C)c(-c2csc3c(O)nc(-c4ccccn4)nc23)cc1C [drawing 2261],inhibition at 30 µM,[1],0%
same,inhibition at 30 µM,[2],51 to 75%
COc1ccccc1-c1csc2c(O)nc(-c3ccccn3)nc12 [drawing 2262],inhibition at 30 µM,[1],51 to 75%
same,inhibition at 30 µM,[2],76 to 100%
Oc1nc(-c2ccccn2)nc2c(-c3ccc(F)cc3F)csc12 [drawing 2263],inhibition at 30 µM,[1],26 to 50%
same,inhibition at 30 µM,[2],76 to 100%
COc1cccc(-c2csc3c(O)nc(-c4ccccn4)nc23)c1 [drawing 2264],inhibition at 30 µM,[1],26 to 50%
same,inhibition at 30 µM,[2],76 to 100%
Oc1nc(-c2ccccn2)nc2c(-c3cccc(C(F)(F)F)c3)csc12 [drawing 2265],inhibition at 30 µM,[1],76 to 100%
same,inhibition at 30 µM,[2],76 to 100%
COc1ccc(F)cc1-c1csc2c(O)nc(-c3ccccn3)nc12 [drawing 2266],inhibition at 30 µM,[1],26 to 50%
same,inhibition at 30 µM,[2],76 to 100%
Oc1nc(-c2ccccn2)nc2c(-c3ccsc3)csc12 [drawing 2267],inhibition at 30 µM,[1],76 to 100%
same,inhibition at 30 µM,[2],76 to 100%
Oc1nc(-c2ccccn2)nc2c(-c3ccc(OC(F)F)cc3F)csc12 [drawing 2268],inhibition at 30 µM,[1],26 to 50%
same,inhibition at 30 µM,[2],76 to 100%
CC(C)COc1ccc(-c2csc3c(O)nc(-c4ccccn4)nc23)cn1 [drawing 2269],inhibition at 30 µM,[1],51 to 75%
same,inhibition at 30 µM,[2],76 to 100%
Cc1cc(OC(F)F)ccc1-c1csc2c(O)nc(-c3ccccn3)nc12 [drawing 2270],inhibition at 30 µM,[1],0%
same,inhibition at 30 µM,[2],76 to 100%
Oc1nc(-c2ccccn2)nc2c(-c3ccc4c(c3)OCO4)csc12 [drawing 2271],inhibition at 30 µM,[1],76 to 100%
same,inhibition at 30 µM,[2],76 to 100%
CC(C)(O)c1ccc(-c2csc3c(O)nc(-c4ccccn4)nc23)c(F)c1 [drawing 2272],inhibition at 30 µM,[1],76 to 100%
same,inhibition at 30 µM,[2],76 to 100%
COc1ccc(-c2csc3c(O)nc(-c4ccccn4)nc23)c(C)c1 [drawing 2273],inhibition at 30 µM,[1],76 to 100%
same,inhibition at 30 µM,[2],76 to 100%
Oc1nc(-c2ccccn2)nc2c(-c3ccc(CN4CCOCC4)cc3)csc12 [drawing 2274],inhibition at 30 µM,[1],0%
same,inhibition at 30 µM,[2],26 to 50%
Oc1nc(-c2ccccn2)nc2c(-c3ccccc3C(F)F)csc12 [drawing 2275],inhibition at 30 µM,[1],76 to 100%
same,inhibition at 30 µM,[2],76 to 100%
COc1cc(-c2csc3c(O)nc(-c4ccccn4)nc23)cnc1C(F)(F)F [drawing 2276],inhibition at 30 µM,[1],1 to 25%
same,inhibition at 30 µM,[2],51 to 75%
CNC(=O)c1ccc(-c2csc3c(O)nc(-c4ccccn4)nc23)cc1C [drawing 2277],inhibition at 30 µM,[1],0%
same,inhibition at 30 µM,[2],26 to 50%
OCC1(c2ccc(-c3csc4c(O)nc(-c5ccccn5)nc34)cc2)CC1 [drawing 2278],inhibition at 30 µM,[1],1 to 25%
same,inhibition at 30 µM,[2],76 to 100%
Oc1nc(-c2ccccn2)nc2c(-c3ccc(OC4CCCCC4)cc3)csc12 [drawing 2279],inhibition at 30 µM,[1],76 to 100%
same,inhibition at 30 µM,[2],76 to 100%
Cc1cnccc1-c1csc2c(O)nc(-c3ccccn3)nc12 [drawing 2280],inhibition at 30 µM,[1],26 to 50%
same,inhibition at 30 µM,[2],76 to 100%
O=C(CCn1ccnc1)Nc1nc(-c2ccccn2)nc2sccc12 [drawing 2281],inhibition at 30 µM,[1],0%
same,inhibition at 30 µM,[2],51 to 75%
O=C(CCc1nn[nH]n1)Nc1nc(-c2ccccn2)nc2sccc12 [drawing 2282],inhibition at 30 µM,[1],0%
same,inhibition at 30 µM,[2],1 to 25%
O=C(CCc1cncnc1)Nc1nc(-c2ccccn2)nc2sccc12 [drawing 2283],inhibition at 30 µM,[1],0%
same,inhibition at 30 µM,[2],26 to 50%
Nc1nc(-c2ccccn2)nc2c(Br)csc12 [drawing 2284],inhibition at 30 µM,[1],0%
same,inhibition at 30 µM,[2],26 to 50%
Cc1sc2c(N)nc(-c3ccccn3)nc2c1Br [drawing 2285],inhibition at 30 µM,[1],0%
same,inhibition at 30 µM,[2],1 to 25%
COC(=O)c1csc2nc(-c3ccccn3)nc(N)c12 [drawing 2287],inhibition at 30 µM,[1],0%
same,inhibition at 30 µM,[2],51 to 75%
Oc1nc(-c2ccccn2)nc2c(-c3ccccn3)csc12 [drawing 2288],inhibition at 30 µM,[1],76 to 100%
same,inhibition at 30 µM,[2],76 to 100%
COc1nccc(CCNC(=O)c2csc3nc(-c4ccccn4)nc(N4CCOCC4)c23)n1 [drawing 2289],inhibition at 30 µM,[1],0%
same,inhibition at 30 µM,[2],26 to 50%
O=C(NCCc1ccnc(O)n1)c1csc2nc(-c3ccccn3)nc(N3CCOCC3)c12 [drawing 2290],inhibition at 30 µM,[1],0%
same,inhibition at 30 µM,[2],1 to 25%
CN1CCN(c2nc(-c3ccccn3)nc3scc(C(=O)NCCc4cnc(O)nc4)c23)CC1 [drawing 2291],inhibition at 30 µM,[1],26 to 50%
same,inhibition at 30 µM,[2],26 to 50%
Oc1nc(-c2ccccn2)nc2c(-c3cc(F)cc(F)c3)csc12 [drawing 2292],inhibition at 30 µM,[1],51 to 75%
same,inhibition at 30 µM,[2],76 to 100%
CN(C)Cc1ccc(F)c(-c2csc3c(O)nc(-c4ccccn4)nc23)c1 [drawing 2293],inhibition at 30 µM,[1],51 to 75%
same,inhibition at 30 µM,[2],76 to 100%
Oc1nc(-c2ccccn2)nc2c(-c3ccc4c(c3)CCCO4)csc12 [drawing 2294],inhibition at 30 µM,[1],0%
same,inhibition at 30 µM,[2],1 to 25%
CCn1nc(C)cc1-c1csc2c(O)nc(-c3ccccn3)nc12 [drawing 2295],inhibition at 30 µM,[1],51 to 75%
same,inhibition at 30 µM,[2],76 to 100%
Oc1nc(-c2ccccn2)nc2c(-c3ccnn3-c3ccccn3)csc12 [drawing 2296],inhibition at 30 µM,[1],0%
same,inhibition at 30 µM,[2],51 to 75%
Cc1sc2c(O)nc(-c3ccccn3)nc2c1-c1ccccc1 [drawing 2297],inhibition at 30 µM,[1],76 to 100%
same,inhibition at 30 µM,[2],76 to 100%
Nc1nc(-c2ccccn2)nc2scc(C(=O)O)c12 [drawing 2298],inhibition at 30 µM,[1],1 to 25%
same,inhibition at 30 µM,[2],1 to 25%
COC(=O)c1cc2nc(-c3ccccn3)nc(O)c2s1 [drawing 2299],inhibition at 30 µM,[1],51 to 75%
same,inhibition at 30 µM,[2],76 to 100%
Oc1nc(-c2ccccn2)nc2c(-c3cnc4ccccc4c3)csc12 [drawing 2300],inhibition at 30 µM,[1],1 to 25%
same,inhibition at 30 µM,[2],76 to 100%
Oc1nc(-c2ccccn2)nc2c(-c3ccc(Cl)c(Cl)c3)csc12 [drawing 2301],inhibition at 30 µM,[1],0%
same,inhibition at 30 µM,[2],26 to 50%
Oc1nc(-c2ccccn2)nc2c(-c3cncc(F)c3)csc12 [drawing 2302],inhibition at 30 µM,[1],0%
same,inhibition at 30 µM,[2],51 to 75%
Oc1nc(-c2ccccn2)nc2c(-c3cc(C(F)(F)F)ccc3F)csc12 [drawing 2303],inhibition at 30 µM,[1],1 to 25%
same,inhibition at 30 µM,[2],76 to 100%
Oc1nc(-c2ccccn2)nc2c(-c3cncc(C(F)(F)F)c3)csc12 [drawing 2304],inhibition at 30 µM,[1],0%
same,inhibition at 30 µM,[2],1 to 25%
Cc1cncc(-c2csc3c(O)nc(-c4ccccn4)nc23)c1 [drawing 2305],inhibition at 30 µM,[1],1 to 25%
same,inhibition at 30 µM,[2],76 to 100%
Cc1sc2c(O)nc(-c3ccccn3)nc2c1-c1cccnc1 [drawing 2306],inhibition at 30 µM,[1],0%
same,inhibition at 30 µM,[2],51 to 75%
COc1cnc(-c2ccccn2)nc1O [drawing 2307],inhibition at 30 µM,[1],1 to 25%
same,inhibition at 30 µM,[2],76 to 100%
COc1cnc(C2CCCN2)nc1O (stereo not shown) [drawing 2308],inhibition at 30 µM,[1],1 to 25%
same,inhibition at 30 µM,[2],1 to 25%
COc1nc(-c2ccccn2)nc2c(C3CCCC3)csc12 [drawing 2309],inhibition at 30 µM,[1],0%
same,inhibition at 30 µM,[2],0%
CCC(C)c1csc2c(OC)nc(-c3ccccn3)nc12 (stereo not shown) [drawing 2310],inhibition at 30 µM,[1],1 to 25%
same,inhibition at 30 µM,[2],26 to 50%
COC(=O)c1c(C)sc2c(O)nc(-c3ccccn3)nc12 [drawing 2311],inhibition at 30 µM,[1],1 to 25%
same,inhibition at 30 µM,[2],76 to 100%
Cc1c(Br)sc2c(O)nc(-c3ccccn3)nc12 [drawing 2312],inhibition at 30 µM,[1],51 to 75%
same,inhibition at 30 µM,[2],76 to 100%
Cc1c(C(=O)O)sc2c(O)nc(-c3ccccn3)nc12 [drawing 2313],inhibition at 30 µM,[1],76 to 100%
same,inhibition at 30 µM,[2],76 to 100%
COC(=O)c1sc2c(O)nc(-c3ccccn3)nc2c1C [drawing 2314],inhibition at 30 µM,[1],0%
same,inhibition at 30 µM,[2],1 to 25%
Oc1nc(-c2ccccn2)nc2c3c(sc12)CNC3 [drawing 2315],inhibition at 30 µM,[1],1 to 25%
same,inhibition at 30 µM,[2],0%
